Entries after “also recorded” stand apart in the source; their conditions may differ.
What was measured:
p56/p59hck = p56/p59hck immunoprecipitation and in vitro kinase assay after treatment of THP-1 cells; format: cell-based, human
Description: FIG. 5. In this figure, the stimulating effect of peptide 1 on the activity of Hck kinase of THP-1 cells is shown. THP-1 cells were metabolically labelled with [35S]-TransLabel, acid washed, and either mock-treated or treated with 0.1 nM peptide 1 (AVTYSRSRYLEC, (SEQ ID NO:1)) for the indicated time at 37° C. Radiolabelled cell lysates were immunoprecipitated (Resnati et al., 1996) using an affinity-purified rabbit polyclonal anti-p56/p59hck antibody.
(A) An aliquot from each immunoprecipitate was directly analyzed by SDS-PAGE to control that equal amount of p56/p59hck were present during in vitro kinase assay.
(B) The remainder of each immunoprecipitate was subjected to in vitro kinase assay in presence of […] of [g-32P]ATP (˜3000 Ci/mmol, Amersham) and […] rabbit muscle enolase for 5 minutes at room temperature. Eluates were thus analyzed by SDS-PAGE autobiography (7.5% acrylamide).
The mixture of chymotrypsin fragments of suPAR, like the uPA/uPAR interaction, induces chemotaxis by transiently activating the p56/p59hck protein kinase (Resnati et al., 1996). If human uPAR-related peptides containing the SRSRY (SEQ ID NO:7) motif induce a chemotactic response on THP-1 cells though the same mechanism exploited by the uPA/uPAR interaction (i.e. by binding to the unidentified adaptor), they should also activate p56/p59hck. THP-1 cells were metabolically labelled with [35S]-TransLabel, acid washed, and either mock-treated or treated with 0.1 nM peptide 1 (AVTYSRSRYLEC (SEQ ID NO:1)) for the indicated time at 37° C. Radiolabelled cell lysates were immunoprecipitated (Resnati et al.,1996) using an affinity-purified rabbit polyclonal anti-p56/p59hck antibody. An aliquot from each immunoprecipitate was directly analyzed by SDS-PAGE to control that equal amount of p56/p59hck were present during in vitro kinase assay (FIG. 5, panel A). The remainder of each immunoprecipitate was subjected to in vitro kinase assay in presence of […] of [g-32P)]ATP (˜3000 Ci/mmol, Amersham) and […] rabbit muscle enolase (substrate) for 5 minutes at room temperature. Eluates were thus analyzed by SDS-PAGE autobiography (7.5% acrylamide). […] The effect was very rapid, since p56/pS9hck stimulation was already- evident after 2 minutes, reached a maximum after […] and returned to the basal level 30 minutes after the addition of the peptide. No effect on p56/p59hck activity was observed when 0.1 nM of the corresponding scrambled peptide was used in the assay (data not shown). The time-course of the effect is identical to that observed with the addition of ATF or of chymotryptic uPAR fragments to THP-1 cells and reported previously (Resnati et al., 1996).

[1] = test system: cells binding to D1(1-92)- or peptide-coated plates; assay: Panning / cell adhesion on coated plastic plates; format: cell-based; settings: for adhesion of mammalian cells to plastic plates coated with the substance: bacterial-grade plastic dishes coated with the substance; for inhibition of adhesion of cells onto D1(1-92): plates coated with D1(1-92)
Description: However, when those plates are coated with peptide 1 or 2 (or domain D1-1-92) or with recombinant forms of these peptides, they adhere because they express on their surface specific D1(1-92)-binding proteins. The adhesion can be measured.
As a positive control (i.e. to set up the technique), cells (106) exposing a high number of uPAR molecules are used and the panning is carried out on plates coated with a specific anti-uPAR antibody. As a negative control, the same cells but now not expressing uPAR are employed. The cells employed as negative controls are LB6, 32D, 3T3 fibroblasts, B-lymphoid cell lines and others. As positive controls, THP-1 cells, LB6/uPAR, 32D/uPAR and other expressing cell lines are employed.
For the screening assay, the same cells employed as negative controls (106) are used, and the plates are coated with domain D1(1-92) or domain D1(1-87) (control). The ability of the cells to bind to the plates is tested after 30-300 minutes incubation at 37° C. by microscopic inspection, or by staining the plates with Coomassie Blue. The same can be done using different techniques.
The ability of peptides 1- or 2-coated plates to specifically bind the THP-1 cells is the basis for the screening technique, as any compound capable of inhibiting this binding is a potential antiinflammatory agent, inhibiting chemotaxis. […] Such compounds, therefore, can be tested as inhibitors of chemotaxis, employing the methods outlined in examples 1-3. Coating can also be carried out with other recombinant forms of the SRSRY (SEQ ID NO:7) sequence in which the epitope is synthesized in fusion with other proteins. Suitable proteins are ferritin (Sidoli et al. (1993)), thioredoxin, GST, beta galactosidase, human serum albumin.

THP-1 cells = assay: Chemotaxis assay in modified Boyden chambers; format: cell-based, human; settings: for chemotactic response of THP-1 cells: Boyden chamber, 90 minutes, migration as percent of control, over the concentration range analyzed; for concentration giving maximal chemotactic response: THP-1 cells, FIG. 4 panels A and C; for concentration at which very potent chemotactic activity is seen: human THP-1 monocytoid cells (and murine LB6 fibroblastic cells)
Description: FIG. 3. […] For each set of experiments, migration toward the assay medium served as control (random cell migration) and is referred to as 100% migration. All experiments were performed in triplicate; the number of cells counted per high power field (ten fields for each condition) is expressed as percent of the control values. The proteins were purified as described in the Methods section. Data points represent the mean of three independent experiments (+SEM). The constructs used are depicted in FIG. 2.
Chemotaxis analysis were performed using modified Boyden chambers containing polyvinylpyrrolidone polycarbonate filters (13 mm diameter, […]) coated with collagen type I ([…] in PBS pH 7.4). The coated filters were washed with medium supplemented with 0.2% bovine serum albumin (BSA) and then placed in the Boyden apparatus. After acid wash, 2×10^5 THP-1 cells suspended in serum-free medium were added above the filter in the Boyden chamber. Purified mutants were diluted in serum-free medium at the indicated concentrations and added below the filter in the lower chamber. The chambers were incubated in a humidified incubafor at 37° C. in 5% CO2 in air for 90 minutes. Filters were removed, the upper surface scraped free of cells, fixed in methanol and stained with crystal violet. For each set of experiments, migration toward the assay medium served as control (random cell migration) and is referred to as 100% migration. All experiments were performed in triplicate; data are reported as number of cells counted for high power field (ten fields for each condition) and expressed as percentage of the control values. Data points represent the mean of three independent experiments (+SEM). When cells of the fibroblast-type or cancer cells were employed for the assay, the time required for migration was higher and the Boyden chamber were usually incubated overnight.

uPAR = uPAR (Homo sapiens, UniProt Q03405); settings: read-out: affinity of binding to uPAR; cited from earlier work
uPAR, sequence (Q03405 23-305): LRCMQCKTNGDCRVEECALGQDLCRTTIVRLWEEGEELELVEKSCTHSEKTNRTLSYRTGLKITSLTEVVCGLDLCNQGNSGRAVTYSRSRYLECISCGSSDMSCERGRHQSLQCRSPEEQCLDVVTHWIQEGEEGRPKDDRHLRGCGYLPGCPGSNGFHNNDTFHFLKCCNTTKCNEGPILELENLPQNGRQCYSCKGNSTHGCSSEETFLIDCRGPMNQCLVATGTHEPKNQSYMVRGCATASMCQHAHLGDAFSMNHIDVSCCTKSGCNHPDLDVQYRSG

AVTYSRSRYLEC [peptide 1]
time at which p56/p59hck stimulation is already evident (p56/p59hck; 0.1 nM peptide): 2 min
autophosphorylation of p56/p59hck (p56/p59hck; 0.1 nM peptide, 37° C.): increase
phosphorylation of the exogenous substrate (rabbit muscle enolase) (p56/p59hck; 0.1 nM peptide, 37° C.): increase
time of return of p56/p59hck activity to the basal level (p56/p59hck; 0.1 nM peptide, after addition of the peptide): 30 min
adhesion of mammalian cells to plastic plates coated with the substance [1]: adhere
inhibition of adhesion of cells onto D1(1-92) [1]: inhibit adhesion
chemotactic response of THP-1 cells (THP-1 cells): dose-dependent chemotactic effect; also recorded: very potent activity
concentration giving maximal chemotactic response (THP-1 cells): 0.1 pM
concentration at which very potent chemotactic activity is seen (THP-1 cells): 0.1 pM

SRSRYLEC [peptide 2]
adhesion of mammalian cells to plastic plates coated with the substance [1]: adhere
inhibition of adhesion of cells onto D1(1-92) [1]: inhibit adhesion
chemotactic response of THP-1 cells (THP-1 cells): dose-dependent chemotactic effect; also recorded: very potent activity
concentration giving maximal chemotactic response (THP-1 cells): 0.1 pM
concentration at which very potent chemotactic activity is seen (THP-1 cells): 0.1 pM

vitronectin: protein bound by uPAR domains D2 and D3
Kd (uPAR): 10 to 20 nM

YTARLWGGTLLT [peptide 3, reference compound]
chemotactic response of THP-1 cells (THP-1 cells): no effect on cell migration

TLVEYYSRASCR [reference compound]
effect on p56/p59hck activity (p56/p59hck; 0.1 nM (data not shown)): No effect
inhibition of adhesion of cells onto D1(1-92) [1]: cannot
chemotactic response of THP-1 cells (THP-1 cells): no effect on cell migration
chemotactic response of THP-1 cells (THP-1 cells; listed as peptide-1 scrambled): do not
